Test results: ChEMBL document CHEMBL1201862, “PubChem BioAssay data set” (2004)
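How tested: cells in 96-well plates exposed to compound for 48 hours at five concentrations. Here, GI50 denotes the concentration required for 50% inhibition of growth.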 Active and inactive are the calls of the source. Rule as the data show it: active = GI50 up to about 1.1 µM and inactive = higher.

Assays:
Assay in all cases: DTP human tumour cell line panel, 48 h
[1] = system: 786-0
[2] = system: A498
[3] = system: A549
[4] = system: ACHN
[5] = system: BT-549
[6] = system: CAKI-1
[7] = system: CCRF-CEM
[8] = system: COLO 205
[9] = system: DLD-1
[10] = system: DMS-114
[11] = system: DU-145
[12] = system: EKVX
[13] = system: HCC 2998
[14] = system: HCT-116
[15] = system: HCT-15
[16] = system: HL-60
[17] = system: HOP-18
[18] = system: HOP-62
[19] = system: HOP-92
[20] = system: HT-29
[21] = system: Hs-578T
[22] = system: IGROV-1
[23] = system: K562
[24] = system: KM-20L2
[25] = system: KM12
[26] = system: M14
[27] = system: M19-MEL
[28] = system: MCF7
[29] = system: MDA-MB-231
[30] = system: MDA-MB-435
[31] = system: MDA-N
[32] = system: MOLT-4
[33] = system: NCI-H226
[34] = system: NCI-H23
[35] = system: NCI-H460
[36] = system: NCI-H522
[37] = system: NCI/ADR-RES
[38] = system: OVCAR-4
[39] = system: OVCAR-5
[40] = system: OVCAR-8
[41] = system: PC-3
[42] = system: RPMI-8226
[43] = system: RXF 393
[44] = system: SF-268
[45] = system: SF-295
[46] = system: SF-539
[47] = system: SK-MEL-28
[48] = system: SK-MEL-2
[49] = system: SK-OV-3
[50] = system: SN12C
[51] = system: SNB-19
[52] = system: SNB-75
[53] = system: SNB-78
[54] = system: SR
[55] = system: SW-620
[56] = system: T47D
[57] = system: TK-10
[58] = system: U-251
[59] = system: UACC-257
[60] = system: UACC-62
[61] = system: UO-31
[62] = system: XF498
[63] = system: DMS-273
[64] = system: LOX IMVI
[65] = system: LXFL 529
[66] = system: OVCAR-3
[67] = system: SK-MEL-5

C=C1C(O)C2(O)OCC34C(CC5C(C)=CC(=O)C(O)C5(C)C23)OC(=O)C(OC(=O)C/C=C(\C)CCCCC)C14 (stereo unspecified)
GI50 [1]: 0.00103 µM (active) | GI50 [2]: 0.0148 µM (active) | GI50 [3]: 0.017 µM (active) | GI50 [4]: < 0.001 µM (active) | GI50 [5]: < 0.001 µM (active) | GI50 [6]: 0.0427 µM (active) | GI50 [7]: 0.0125 µM (active) | GI50 [8]: 0.0154 µM (active) | GI50 [9]: 0.0146 µM (active) | GI50 [10]: 0.0125 µM (active) | GI50 [11]: < 0.001 µM (active) | GI50 [12]: 0.0198 µM (active) | GI50 [13]: 0.0136 µM (active) | GI50 [14]: 0.0125 µM (active) | GI50 [15]: 0.0316 µM | GI50 [16]: 0.0125 µM (active) | GI50 [17]: 0.0343 µM (active) | GI50 [18]: 0.0148 µM (active) | GI50 [19]: 0.0147 µM (active) | GI50 [20]: 0.0141 µM (active) | GI50 [21]: < 0.001 µM (active) | GI50 [22]: 0.0133 µM (active) | GI50 [23]: 0.0125 µM (active) | GI50 [24]: 0.0149 µM (active) | GI50 [25]: 0.0129 µM (active) | GI50 [26]: < 0.001 µM (active) | GI50 [27]: 0.0136 µM (active) | GI50 [28]: 0.0125 µM (active) | GI50 [29]: 0.00315 µM (active) | GI50 [30]: < 0.001 µM (active) | GI50 [31]: < 0.001 µM (active) | GI50 [32]: 0.0125 µM (active) | GI50 [33]: 0.0144 µM (active) | GI50 [34]: 0.0147 µM (active) | GI50 [35]: 0.0125 µM (active) | GI50 [36]: 0.0125 µM (active) | GI50 [37]: 0.624 µM (active) | GI50 [38]: 0.0125 µM (active) | GI50 [39]: 0.0231 µM (active) | GI50 [40]: 0.0125 µM (active) | GI50 [41]: < 0.001 µM (active) | GI50 [42]: 0.014 µM (active) | GI50 [43]: 0.0152 µM (active) | GI50 [44]: 0.0152 µM (active) | GI50 [45]: 0.0125 µM (active) | GI50 [46]: 0.0153 µM (active) | GI50 [47]: 0.0128 µM (active) | GI50 [48]: 0.0251 µM (active) | GI50 [49]: 0.0133 µM (active) | GI50 [50]: 0.0199 µM (active) | GI50 [51]: 0.0146 µM (active) | GI50 [52]: 0.0153 µM (active) | GI50 [53]: 0.0145 µM (active) | GI50 [54]: < 0.01 µM (active) | GI50 [55]: 0.0153 µM (active) | GI50 [56]: < 0.001 µM (active) | GI50 [57]: 0.00177 µM (active) | GI50 [58]: 0.0125 µM (active) | GI50 [59]: 0.0125 µM (active) | GI50 [60]: 0.0147 µM (active) | GI50 [61]: 0.0787 µM (active) | GI50 [62]: 0.0153 µM (active)

COc1ccc2oc(C(=O)O)c3c2c1CCC3
GI50 [1]: > 100 µM (inactive) | GI50 [2]: > 100 µM (inactive) | GI50 [3]: > 100 µM (inactive) | GI50 [4]: > 100 µM (inactive) | GI50 [6]: > 100 µM (inactive) | GI50 [7]: > 100 µM (inactive) | GI50 [8]: > 100 µM (inactive) | GI50 [9]: > 100 µM (inactive) | GI50 [10]: > 100 µM (inactive) | GI50 [63]: > 100 µM (inactive) | GI50 [12]: > 100 µM (inactive) | GI50 [13]: > 100 µM (inactive) | GI50 [14]: > 100 µM (inactive) | GI50 [15]: > 100 µM | GI50 [16]: > 100 µM (inactive) | GI50 [17]: > 100 µM (inactive) | GI50 [18]: > 100 µM (inactive) | GI50 [19]: 42.5 µM (inactive) | GI50 [20]: > 100 µM (inactive) | GI50 [22]: > 100 µM (inactive) | GI50 [23]: > 100 µM (inactive) | GI50 [24]: > 100 µM (inactive) | GI50 [64]: > 100 µM (inactive) | GI50 [65]: > 100 µM (inactive) | GI50 [26]: > 100 µM (inactive) | GI50 [27]: > 100 µM (inactive) | GI50 [32]: > 100 µM (inactive) | GI50 [34]: > 100 µM (inactive) | GI50 [35]: > 100 µM (inactive) | GI50 [66]: > 100 µM (inactive) | GI50 [38]: > 100 µM (inactive) | GI50 [40]: > 100 µM (inactive) | GI50 [42]: > 100 µM (inactive) | GI50 [43]: > 100 µM (inactive) | GI50 [45]: > 100 µM (inactive) | GI50 [46]: > 100 µM (inactive) | GI50 [47]: > 100 µM (inactive) | GI50 [67]: > 100 µM (inactive) | GI50 [49]: > 100 µM (inactive) | GI50 [50]: > 100 µM (inactive) | GI50 [51]: > 100 µM (inactive) | GI50 [52]: > 100 µM (inactive) | GI50 [53]: > 100 µM (inactive) | GI50 [55]: > 100 µM (inactive) | GI50 [57]: > 100 µM (inactive) | GI50 [58]: > 100 µM (inactive) | GI50 [59]: > 100 µM (inactive) | GI50 [60]: > 100 µM (inactive) | GI50 [62]: > 100 µM (inactive)
